# From patent US20250154121A1, “CYCLIC(ALKYL)(AMINO)ALKOXY-SUBSTITUTED ARYL-PYRONE COMPOUND AND USE THEREOF” (priority 2022, published 2025)
# Values joined by “and” are separate entries in the source; they are usually repeats but may differ in a detail not shown here. Equal values may be shown once. Read-outs that look alike come from different tables or passages of the source.
# Key:
# [1] = target: ACE2 receptor (Homo sapiens, UniProt Q9BYF1); assay: ACE2-293T/CMC cell membrane chromatography binding; conditions: ACE2-293T/CMC column
# Chain of ACE2 receptor (Q9BYF1 18-805): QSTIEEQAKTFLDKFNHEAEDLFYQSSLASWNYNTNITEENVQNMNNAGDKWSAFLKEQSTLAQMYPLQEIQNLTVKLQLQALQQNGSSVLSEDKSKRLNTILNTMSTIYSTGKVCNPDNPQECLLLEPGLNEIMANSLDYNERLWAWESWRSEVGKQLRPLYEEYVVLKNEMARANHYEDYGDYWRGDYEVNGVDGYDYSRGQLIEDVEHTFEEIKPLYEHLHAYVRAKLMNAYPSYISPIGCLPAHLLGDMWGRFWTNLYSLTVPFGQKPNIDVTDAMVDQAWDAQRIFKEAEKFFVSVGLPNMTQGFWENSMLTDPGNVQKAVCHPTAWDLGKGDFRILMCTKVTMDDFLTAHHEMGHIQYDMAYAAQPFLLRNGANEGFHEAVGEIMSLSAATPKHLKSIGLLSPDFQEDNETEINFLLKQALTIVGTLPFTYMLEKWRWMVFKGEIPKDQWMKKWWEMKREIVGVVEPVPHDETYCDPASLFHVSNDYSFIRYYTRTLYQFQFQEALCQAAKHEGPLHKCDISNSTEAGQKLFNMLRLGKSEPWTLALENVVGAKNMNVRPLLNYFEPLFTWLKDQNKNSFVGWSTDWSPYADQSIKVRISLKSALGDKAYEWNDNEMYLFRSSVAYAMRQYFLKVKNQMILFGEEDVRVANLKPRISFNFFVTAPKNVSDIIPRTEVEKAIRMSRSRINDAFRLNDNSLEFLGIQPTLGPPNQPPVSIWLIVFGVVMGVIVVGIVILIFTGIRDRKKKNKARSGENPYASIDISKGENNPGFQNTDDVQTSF
# [2] = system: SARS-CoV-2; assay: Antiviral CPE assay against SARS-CoV-2 in VeroE6 cells; format: cell-based; conditions: 100 TCID50, read-out: Inhibition rate (%) of viral CPE
# [3] = Acute toxicity test in mice (single gavage, 14-day observation); format: in vivo; conditions: for mortality rate of animals: 14 days observation
# Method: Seventy ICR mice, weighing 17-21 g, were randomly divided into 7 groups according to fasting body weight: a normal control group and 6 dose groups of 475, 633, 844, 1125, 1500 and 2000 mg of the test drug (compound 4)/kg, 10 mice in each group, 50/50 male and female. After fasting for about 15 h, each dosing group was administered once by gavage in a volume of 40 ml/kg, and the control group was gavaged with an equal volume of 0.5% sodium carboxymethylcellulose solution once/day, and the animals were observed continuously for 14 days after administration of the drug to observe the death of the animals.
# Thirty ICR mice, weighing 17-21 g, were randomly divided into three groups according to their fasting body weight: a normal control group and 2000 mg and 4000 mg of test drug (Compound 12)/kg dose group, 10 mice in each group, 50/50 male and female. After fasting for about 15 h, each dosing group was given the drug once by gavage in a volume of 40 ml/kg, and the control group was given an equal volume of 0.5% sodium carboxymethylcellulose solution by gavage once/day, and the deaths of the animals were observed continuously for 14 days after the administration of the drug.
# [4] = system: human coronavirus OC43; format: in vivo; conditions: Table 6 (Example 17)
# [5] = system: Sendai strain of parainfluenza virus; format: in vivo
# [6] = system: Human Coronavirus 229E (HCoV-229E); assay: animal or person; format: in vivo
# [7] = system: Influenza A (H1N1) virus FM1 strain; assay: Mouse pneumonia model infected with influenza A (H1N1) virus FM1 strain (lung index); format: in vivo, ICR mice
# Method: ICR mice were taken and randomly divided into: normal control group, model control group, ribavirin control group, compound 4, compound F1, compound F2, and compound F3 according to their weight class, and each drug was given in two dosage groups (10 mice in each group). Except for the normal control group, mice were slightly anesthetized with ether and infected with 15 LD50 H1N1 influenza virus liquid FM1 strain by nasal drops (30 μl per animal). The administration was started on the day of infection at 0.2 ml/10 g by gavage each time once a day for 4 days, and the normal control and model control groups were gavaged with distilled water under the same conditions. The mice were weighed and dissected on Day 5, and the lung was weighed to calculate lung index and lung index inhibition. The results were statistically processed using t-test for comparison between groups.
# (§1) ICR mice were taken and randomly divided by weight class: normal control group, model control group, oseltamivir control group, compound 4, compound F4, compound F5, compound 5, and compound 7 according to their weight class, and each drug was given in two dosage groups (10 mice in each group). Except for the normal control group, mice were slightly anesthetized with ether and infected with 15 LD50 H1N1 influenza virus liquid (FM1/PR8 strain) by nasal drops (30 μl per each animal). The administration was started on the day of infection at 0.2 ml/10 g by gavage each time once a day for 4 days, and the normal control and model control groups were gavaged with distilled water under the same conditions. The mice were weighed and dissected on Day 5, and lung was weighed to calculate lung index and lung index inhibition. The results were statistically processed using t-test for comparison between groups.
# (§2) ICR mice were taken and randomly divided into 9 groups according to the body weight: a normal control group, model control group, oseltamivir control group, and two dosage groups of Compound 9, Compound 12 and Compound 2, 10 mice in each group. Except the normal control group, mice were slightly anesthetized with ether and infected with 15 LD50 H1N1/PR8 influenza virus liquid by nasal drops at 30 μl per mouse. The administration was started on the day of infection, at 0.2 ml/10 g each time by gavage once a day for 4 days, and the normal control and model control groups were gavaged with distilled water under the same conditions. The mice were weighed and dissected on Day 5, and lungs were weighed to calculate lung index and lung index inhibition. The results were statistically processed using t-test for comparison between groups.
# [8] = system: Influenza A (H1N1) virus PR8 strain; assay: Mouse pneumonia model infected with influenza A (H1N1) virus PR8 strain (lung index); format: in vivo, ICR mice; conditions: Table 3 (Example 14)
# Method: as §1, §2
# [9] = dose groups of 1125 mg drug/kg and above
# [10] = Table 7 (Example 18), 3.75 mg/kg/d gavage for 4 days
# [11] = Table 7 (Example 18), 7.5 mg/kg/d gavage for 4 days
# [12] = Table 7 (Example 18), 15 mg/kg/d gavage for 4 days
# [13] = Table 11 (Example 24), 7.5 mg/kg/d gavage for 4 days
# [14] = Table 11 (Example 24), 15 mg/kg/d gavage for 4 days
# [15] = 7.5 mg/kg gavage once a day for 4 days
smiles,measurement,setting,value
O=c1c(-c2ccccc2)coc2cc(OCCNC3CC3)ccc12 [Compound 4],Kd,[1],1070 nM
same,inhibition at 1.95 µg/mL,"[2]; Severe acute respiratory syndrome coronavirus 2, Vero C1008, drug concentration 1.95 μg/mL",6.67 ± 2.89%
same,inhibition at 3.9 µg/mL,"[2]; Severe acute respiratory syndrome coronavirus 2, Vero C1008, drug concentration 3.9 μg/mL",25 ± 5%
same,inhibition at 7.8 µg/mL,"[2]; Severe acute respiratory syndrome coronavirus 2, Vero C1008, drug concentration 7.8 μg/mL",76.7 ± 2.89%
same,inhibition at 15.6 µg/mL,"[2]; Severe acute respiratory syndrome coronavirus 2, Vero C1008, drug concentration 15.6 μg/mL",90 ± 5%
same,mortality rate of animals,[3]; 475 mg/kg single gavage,0%
same,mortality rate of animals,[3]; 633 mg/kg single gavage,0%
same,mortality rate of animals,[3]; 844 mg/kg single gavage,0%
same,mortality rate of animals,[3]; 1125 mg/kg single gavage,20%
same,mortality rate of animals,[3]; 1500 mg/kg single gavage,80%
same,mortality rate of animals,[3]; 2000 mg/kg single gavage,100%
same,LD50,"[3]; Bliss method, single gavage, mice",1299.054 mg of drug/kg
same,maximum non-adverse effect dose,"[3]; both, ICR, mouse, in vivo, 14 days",475 mg of drug/kg
same,peak of the deaths after the drug,[3]; [9],24 to 48 h
same,time of animal deaths after the drug,[3]; [9],≤ 4 days
same,maximum non-lethal dose,"[3]; single gavage, mice",844 mg of drug/kg
same,inhibition rate %,[4]; 3.75 mg/kg/d gavage for 4 days,33.28%
same,lung index,[4]; 3.75 mg/kg/d gavage for 4 days,0.81 ± 0.08 g lung weight × 100/g body weight
same,inhibition rate %,[4]; 7.5 mg/kg/d gavage for 4 days,32.42%
same,lung index,[4]; 7.5 mg/kg/d gavage for 4 days,0.82 ± 0.05 g lung weight × 100/g body weight
same,inhibition rate %,[4]; 15 mg/kg/d gavage for 4 days,47.43%
same,lung index,[4]; 15 mg/kg/d gavage for 4 days,0.79 ± 0.10 g lung weight × 100/g body weight
same,inhibition rate %,[5]; [10],18.11%
same,lung index,[5]; [10],0.73 ± 0.07 lung weight/100 g body weight
same,inhibition rate %,[5]; [11],26.20%
same,lung index,[5]; [11],0.72 ± 0.05 lung weight/100 g body weight
same,inhibition rate %,[5]; [12],46.39%
same,lung index,[5]; [12],0.70 ± 0.05 lung weight/100 g body weight
same,inhibition rate %,[5]; [13],54.48%
same,lung index,[5]; [13],0.77 ± 0.04 Lung weight * 100/body weight
same,inhibition rate %,[5]; [14],45.45%
same,lung index,[5]; [14],0.78 ± 0.04 Lung weight * 100/body weight
same,inhibition in vivo at 40 mg/kg/day,"[6]; Human coronavirus 229E, in Mus musculus, po, 96 h, Table 4 (Example 15), 40 mg/kg/d gavage for 4 days, read-out: inhibition rate (%)",41.9%
same,inhibition in vivo at 50 mg/kg/day,"[6]; Human coronavirus 229E, in Mus musculus, po, 96 h, Table 4 (Example 15), 50 mg/kg/d gavage for 4 days, read-out: inhibition rate (%)",41%
same,inhibition in vivo at 7.5 mg/kg/day,"[6]; Human coronavirus 229E, in Mus musculus, po, 96 h, Table 5 (Example 16), 7.5 mg/kg/d gavage for 4 days, read-out: inhibition rate (%)",44.3%
same,inhibition in vivo at 15 mg/kg/day,"[6]; Human coronavirus 229E, in Mus musculus, po, 96 h, Table 5 (Example 16), 15 mg/kg/d gavage for 4 days, read-out: inhibition rate (%)",76.5%
same,inhibition in vivo at 30 mg/kg/day,"[6]; Human coronavirus 229E, in Mus musculus, po, 96 h, Table 5 (Example 16), 30 mg/kg/d gavage for 4 days, read-out: inhibition rate (%)",86.5%
same,inhibition in vivo at 7.5 mg/kg/day,"[6]; Human coronavirus 229E, in Mus musculus, po, 96 h, Table 10 (Example 23), 7.5 mg/kg/d gavage for 4 days, read-out: inhibition rate (%)",50%
same,lung index,"[6]; Table 4 (Example 15), 40 mg/kg/d gavage for 4 days",0.76 ± 0.02 g lung weight × 100/g body weight
same,lung index,"[6]; Table 4 (Example 15), 50 mg/kg/d gavage for 4 days",0.76 ± 0.08 g lung weight × 100/g body weight
same,lung index,"[6]; Table 5 (Example 16), 7.5 mg/kg/d gavage for 4 days",0.71 ± 0.11 g lung weight × 100/g body weight
same,lung index,"[6]; Table 5 (Example 16), 15 mg/kg/d gavage for 4 days",0.67 ± 0.08 g lung weight × 100/g body weight
same,lung index,"[6]; Table 5 (Example 16), 30 mg/kg/d gavage for 4 days",0.66 ± 0.05 g lung weight × 100/g body weight
same,lung index,"[6]; Table 10 (Example 23), 7.5 mg/kg/d gavage for 4 days",0.81 ± 0.03 g lung weight × 100/g body weight
same,inhibition in vivo at 25 mg/kg,"[7]; Influenza A virus, H1N1, po, 96 h, Table 1 (Example 13), 25 mg/kg gavage once a day for 4 days, read-out: inhibition rate (%)",23.7%
same,inhibition in vivo at 50 mg/kg,"[7]; Influenza A virus, H1N1, po, 96 h, Table 1 (Example 13), 50 mg/kg gavage once a day for 4 days, read-out: inhibition rate (%)",39.3%
same,inhibition in vivo at 20 mg/kg,"[7]; Influenza A virus, H1N1, po, 96 h, Table 2 (Example 14), 20 mg/kg gavage once a day for 4 days, read-out: inhibition rate (%)",15.1%
same,inhibition in vivo at 40 mg/kg,"[7]; Influenza A virus, H1N1, po, 96 h, Table 2 (Example 14), 40 mg/kg gavage once a day for 4 days, read-out: inhibition rate (%)",54%
same,lung index,"[7]; Table 1 (Example 13), 25 mg/kg gavage once a day for 4 days",1.09 ± 0.13
same,lung index,"[7]; Table 1 (Example 13), 50 mg/kg gavage once a day for 4 days",1.01 ± 0.12
same,lung index,"[7]; Table 2 (Example 14), 20 mg/kg gavage once a day for 4 days",1.04 ± 0.12
same,lung index,"[7]; Table 2 (Example 14), 40 mg/kg gavage once a day for 4 days",0.89 ± 0.20
same,inhibition rate %,[8]; [15],23.91%
same,lung index,[8]; [15],0.98 ± 0.11
same,lung index,[8]; 15 mg/kg gavage once a day for 4 days,0.83 ± 0.10
same,inhibition rate %,"[8]; 15 mg/kg gavage once a day for 4 days, 15 mg/kg",54.04% and 60.27%
